Source: patent US11547699B2, “[2-[(5-nitro-1,3-thiazol-2-yl)carbamoyl]phenyl]ethanoate for use in lymphangioleiomyomatosis and other diseases” (priority 2017, dated 2023)

Columns and labels:
[1] = system: phosphorylation of the ribosomal protein S6 in 621-101 cells; assay: rpS6 phosphorylation in 621-101 cells (ELISA and Western blotting), read-out for mTOR pathway activity; type: cell-based, human; conditions: 60 minutes incubation
Procedure: These assays are used to test the effect of a compound on the activity of the mTOR pathway. Phosphorylation of ribosomal protein rp60 is used as read-out for mTOR pathway activity. […] Thus, these assays mimic a disease causative mechanism. 621-101 cells are human cells derived from an angiomyolipoma. They have verified TSC2 mutations and are the only disease-derived mutation-bearing cells used that are mimicking the disease Lymphangioleiomyomitosis. Cells were grown to 60-80% confluence in DMEM+10% serum. Medium was replaced with fresh serum free medium two hours before addition of test compound of the invention. Compound was added as a 1:1000 dilution of the stock solution in DMSO. DMSO was added as a vehicle control, and samples were incubated for a further 60 minutes. For ELISA, cells were harvested into 200 ul cell lysis buffer containing both protease and phosphatase inhibitors, to protect the phosphorylation status of rpS6. Lysates were stored at −80° C. prior to use. 50 ul of lysate per sample was used for the ELISA, which was carried out according to manufacturers' instructions. For Western blotting, cells were harvested into 200 ul cell lysis buffer containing both protease and phosphatase inhibitors and resolved by SDS-PAGE before transfer to PVDF membrane and incubation with anti-phospho-rpS6 and anti-total-rpS6 antibodies.

[2] = system: phosphorylation of the ribosomal protein S6 in MEF cells; assay: rpS6 phosphorylation in MEF cells (ELISA and Western blotting), read-out for mTOR pathway activity; type: cell-based, mouse; conditions: 60 minutes incubation
Text: These assays are used to test the effect of a compound on the activity of the mTOR pathway. Phosphorylation of ribosomal protein rp60 is used as read-out for mTOR pathway activity. […] Thus, these assays mimic a disease causative mechanism.
MEFs are mouse embryo fibroblasts derived from TSC2 knockout (MEF110) and TSC2+ (MEF157) mice. Tsc2 mutations are known to cause tuberous sclerosis and lymphangioleiomyomatosis in humans.
All cells were maintained in DMEM tissue culture medium, with the addition of fetal calf serum to 10% to support cell proliferation, at 37° C. and 5% CO2.
In MEFs, ribosomal protein S6, which is a component of the 40S ribosome, and phosphorylated at Ser236 by p70 S6 kinase can be assayed by ELISA and Western blotting, using phospho-specific antibodies which detect both the human and the mouse forms of rpS6. This assay is predicitve of compounds with protective or therapetic activities for respiratory and vascular diseases, fibrotic diseases, or neurodegenerative diseases.
Cells were grown to 60-80% confluence in DMEM+10% serum. Medium was replaced with fresh serum free medium two hours before addition of test compound of the invention.
Compound was added as a 1:1000 dilution of the stock solution in DMSO. DMSO was added as a vehicle control, and samples were incubated for a further 60 minutes. […]

CC(=O)Oc1ccccc1C(=O)Nc1ncc([N+](=O)[O-])s1 [the compound of the invention, [2-[(5-nitro-1,3-thiazol-2-yl)carbamoyl]phenyl]ethanoate] was tested, and the “tolerability by the cells” value [1] was “well tolerated” and the “tolerability by the cells” value [2] was “well tolerated”.
